In US9241964B2, “Composition from Sphaeranthus indicus and Garcinia mangostana for the control of metabolic syndrome” (LAILA NUTRACEUTICALS, priority 2009, dated 2016):

Legend:
[1] = test system: PPARγ; experiment: Immunoblot of PPARγ in 3T3-L1 adipocytes; type: cell-based, mouse; settings: immunoblot normalized with actin
Text: (§1) The inventors have then evaluated the modulation of metabolic biomarkers those are primarily responsible for the adipogenesis processes, insulin resistance in type 2 diabetes, obesity, metabolic syndrome and other metabolic disorders such as Peroxisome proliferator-activated receptor gamma (PPARγ), CD36, adipocyte fatty acid binding protein 4 (FABP4 or aP2), Perilipin, and beta-3 Adrenergic Receptor (β3AR) during adipogenesis process in 3T3-L1 adipocytes by ethyl actate extract (LI/DD-II/054A/01) of Sphaeranthus indicus and 7-hydroxyfrullanolide (LI054A01) using an immunoblot assay. […] The protein extracts were evaluated by immunoblot assay, and the immuno-reactive bands were developed with West-pico chemiluminescent substrate and the blot images were captured in a Kodak Image Station, normalized with expression of actin.
(§2) Experimental protocol: Mouse pre-adipocyte 3T3-L1 cells are maintained in Dulbecco's Modified Eagles Medium (DMEM) supplemented with 2 mM glutamine, 4.5 g/L glucose and 10% fetal bovine serum. […] Protein content was measured in Bradford method by using Coomassie blue dye and cell lysates were stored in aliquots at −80° C. until further use. […]
(§3) Inhibition of protein expression of biomarker molecules adipocytes in presence or absence of Sphaeranthus indicus extract LI/DD-II/054A/01 and 7-hydroxyfrullanolide (LI054A01) was evaluated in immunoblot assay. […]

[2] = test system: aP2/FABP4; experiment: Immunoblot of aP2/FABP4 in 3T3-L1 adipocytes; type: cell-based, mouse; settings: immunoblot normalized with actin
Text: as §1, §2, §3

## C=C1C(=O)O[C@H]2C3=C(C)CCC[C@]3(C)CC[C@@]12O [LI054A01, 7-α-hydroxy-4,11(13)-eudesmadien-12,6-olide]
[1]
  PPARγ protein level: potently ameliorated
[2]
  aP2/FABP4 protein level: potently ameliorated
